# Laboratory results as given in patent publication US20240342947A1, “A WOOD PRESERVATIVE COMPOSITION COMPRISING 4,5-DICHLORO-2-OCTYLISOTHIAZOL-3(2H)-ONE, A METHOD TREATING A WOOD SUBSTRATE THEREWITH, AND A WOOD PRODUCT PRODUCED THEREFROM” (KOPPERS PERFORMANCE CHEMICALS, INC., priority 2021, published 2024).
# Test: #2 Diesel solvency for DCOI testing
# Type: physicochemical
# Protocol: Solvency (i.e., ability to dissolve) of #2 diesel for DCOI was measured. Initially, different amounts of DCOI (98.5% purity) was dissolved in #2 diesel in respective vials to make a DCOI concentrate. Thereafter, the vials were stored at ambient temperature (i.e., 21 degrees Celsius+/−2 degrees) or 4 degrees Celsius for up to 7 days. During storage, the vials were monitored for phase separation, precipitation, and turbidity, which may indicate incompatibility between the organic solvent and the DCOI. Whenever a phase separation, precipitation or solution turbidity event happened, the vial was no longer monitored and the DCOI concentration in that solution was considered to be higher than the solvency of the organic solvent.
# After two hours of storage at ambient temperature, it was observed that the solvency of #2 diesel for DCOI without any additional polar solvents was no greater than 15% by weight because the DCOI precipitated in the vials containing concentrations of DCOI of greater than 15% by weight. […] Therefore, the maximum solvency of #2 diesel is for DCOI was determined to be 15% by weight.
smiles,measurement,setting,value
"CCCCCCCCn1sc(Cl)c(Cl)c1=O [DCOI, 4,5-dichloro-2-octylisothiazol-3 (2H)-one]",solvency of #2 diesel for DCOI,"after two hours of storage at ambient temperature, without any additional polar solvents",≤ 15 % by weight
same,maximum solvency of #2 diesel for DCOI,"ambient temperature, no solid DCOI precipitated after 7 days",15 % by weight
